In ChEMBL document CHEMBL1201862, “PubChem BioAssay data set” (2004) one finds IC50, AC50 and EC50 data, which are given here for nine molecules.

Calls of active or inactive are those of the source.

The target in one test is T1, NADPH oxidase 1 (Homo sapiens, UniProt Q9Y5S8).
T1 sequence (Q9Y5S8 whole entry): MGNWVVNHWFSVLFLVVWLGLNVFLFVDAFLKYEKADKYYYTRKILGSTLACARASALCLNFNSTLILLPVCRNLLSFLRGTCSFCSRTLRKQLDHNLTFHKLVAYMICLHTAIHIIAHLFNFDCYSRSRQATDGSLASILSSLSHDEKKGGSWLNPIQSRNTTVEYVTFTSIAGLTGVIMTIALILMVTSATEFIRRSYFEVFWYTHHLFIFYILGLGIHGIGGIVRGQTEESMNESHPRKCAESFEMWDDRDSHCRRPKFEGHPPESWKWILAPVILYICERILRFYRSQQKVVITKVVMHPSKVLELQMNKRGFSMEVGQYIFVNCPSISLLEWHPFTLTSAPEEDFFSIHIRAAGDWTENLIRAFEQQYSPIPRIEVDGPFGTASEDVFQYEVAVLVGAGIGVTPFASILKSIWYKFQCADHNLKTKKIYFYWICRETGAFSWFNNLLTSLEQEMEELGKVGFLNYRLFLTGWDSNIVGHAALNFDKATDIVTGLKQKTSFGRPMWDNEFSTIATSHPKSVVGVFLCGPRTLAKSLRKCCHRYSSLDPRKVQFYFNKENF
In words: Late-stage luminescence-based cell-based dose response assay to identify inhibitors of NADPH oxidase 1 (NOX1): Purchased analogs 2. It counts as functional.

The target of test [1] is Photoreceptor-specific nuclear receptor (Homo sapiens, UniProt Q9Y5X4). In words: ligands suppressing NR2E3 nuclear receptor activity – biochemical, TR-FRET, dose response (AID 463256). It counts as functional. Background: In TR-FRET formats the signal depends on donor and acceptor labels being close together.
The target of test [2] is Peroxisome proliferator-activated receptor gamma/Nuclear receptor corepressor 2 (Homo sapiens, UniProt P37231+Q9Y618). In words: Counterscreen for NR2E3 inverse agonists: TR-FRET-based biochemical high throughput dose response assay to identify inverse agonists of the interaction between peroxisome proliferator-activated receptor gamma (PPARg) and nuclear receptor co-repressor 2 (NCOR2). It counts as functional. In general terms: The purpose of a counterscreen is to sort out artefacts and off-target activity.

The target in the next test is T2, Protein skinhead-1 (Caenorhabditis elegans, UniProt P34707).
T2 sequence (P34707 whole entry): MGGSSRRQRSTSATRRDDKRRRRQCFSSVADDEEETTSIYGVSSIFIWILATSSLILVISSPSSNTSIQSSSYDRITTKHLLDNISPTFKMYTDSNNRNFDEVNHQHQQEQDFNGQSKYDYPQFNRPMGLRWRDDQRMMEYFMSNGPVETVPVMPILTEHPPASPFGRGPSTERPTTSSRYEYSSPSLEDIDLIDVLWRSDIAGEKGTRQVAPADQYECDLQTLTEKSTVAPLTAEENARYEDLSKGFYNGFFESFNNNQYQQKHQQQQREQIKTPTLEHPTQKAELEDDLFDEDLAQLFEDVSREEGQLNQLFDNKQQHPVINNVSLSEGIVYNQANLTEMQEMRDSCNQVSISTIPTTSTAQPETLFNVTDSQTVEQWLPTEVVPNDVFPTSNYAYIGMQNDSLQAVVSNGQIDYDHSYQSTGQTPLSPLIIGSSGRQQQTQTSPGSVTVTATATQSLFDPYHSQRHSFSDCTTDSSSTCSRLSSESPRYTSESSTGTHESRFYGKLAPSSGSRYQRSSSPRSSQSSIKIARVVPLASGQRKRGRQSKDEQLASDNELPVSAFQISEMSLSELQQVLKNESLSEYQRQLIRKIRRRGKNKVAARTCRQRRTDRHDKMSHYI
It counts as functional.

The next test deals with Procathepsin L (Homo sapiens, UniProt P07711). In words: CTSL1 protease inhibition – biochemical, QFRET, 1536-well, counter-screen for M1/M17 aminopeptidase inhibitor project, dose response (AID 2214).
For another test, the target named is T3, Aspartyl aminopeptidase (Plasmodium falciparum 3D7, UniProt Q8I2J3).
T3 sequence (Q8I2J3 whole entry): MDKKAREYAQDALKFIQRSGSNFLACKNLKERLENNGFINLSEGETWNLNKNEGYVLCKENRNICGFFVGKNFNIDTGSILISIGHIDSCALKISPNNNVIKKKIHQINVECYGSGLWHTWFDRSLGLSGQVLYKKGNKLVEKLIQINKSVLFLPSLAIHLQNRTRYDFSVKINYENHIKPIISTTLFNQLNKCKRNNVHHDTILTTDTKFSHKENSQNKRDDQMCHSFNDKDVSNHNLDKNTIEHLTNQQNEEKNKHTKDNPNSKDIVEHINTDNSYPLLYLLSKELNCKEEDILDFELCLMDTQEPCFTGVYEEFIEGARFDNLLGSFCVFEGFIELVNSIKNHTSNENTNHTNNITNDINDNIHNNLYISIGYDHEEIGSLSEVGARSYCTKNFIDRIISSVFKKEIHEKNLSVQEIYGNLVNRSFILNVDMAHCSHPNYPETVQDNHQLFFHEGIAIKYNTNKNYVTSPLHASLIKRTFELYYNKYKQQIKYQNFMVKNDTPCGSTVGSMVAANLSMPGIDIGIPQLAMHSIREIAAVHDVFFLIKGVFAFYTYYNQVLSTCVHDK
In words: Counterscreen for inhibitors of M1 and M17 aminopeptidases: QFRET-based biochemical high throughput dose response assay for inhibitors of the Plasmodium falciparum M18 Aspartyl Aminopeptidase (PFM18AAP). [Related PubChem assays: 1619 (Screening assay (M17LAP inhibitors).), 1445 (Screening assay (M1AAP inhibitors).)].

The target of another test is T4, Leucine aminopeptidase (Plasmodium falciparum 3D7, UniProt Q8IL11).
T4 sequence (Q8IL11 whole entry): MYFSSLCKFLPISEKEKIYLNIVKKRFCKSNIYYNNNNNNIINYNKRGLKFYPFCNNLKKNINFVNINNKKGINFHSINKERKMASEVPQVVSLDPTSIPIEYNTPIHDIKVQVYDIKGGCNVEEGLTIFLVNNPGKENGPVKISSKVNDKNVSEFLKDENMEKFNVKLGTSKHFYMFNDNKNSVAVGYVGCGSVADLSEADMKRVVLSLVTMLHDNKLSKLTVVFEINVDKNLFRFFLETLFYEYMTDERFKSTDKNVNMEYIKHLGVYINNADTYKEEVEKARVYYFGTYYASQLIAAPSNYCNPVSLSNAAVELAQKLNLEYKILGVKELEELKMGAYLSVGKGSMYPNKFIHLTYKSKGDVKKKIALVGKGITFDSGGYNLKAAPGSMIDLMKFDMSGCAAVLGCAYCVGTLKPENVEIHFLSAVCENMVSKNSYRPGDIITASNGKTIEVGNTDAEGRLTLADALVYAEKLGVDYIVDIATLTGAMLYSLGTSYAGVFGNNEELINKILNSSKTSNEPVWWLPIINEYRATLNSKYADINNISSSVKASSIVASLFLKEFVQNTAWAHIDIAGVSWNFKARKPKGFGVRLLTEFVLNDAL
In words: P. falciparum M17LAP inhibitors, primary screen, biochemical, fluorogenic H-Leu-NHMec substrate, 1536-well (AID 1619). It counts as functional.

In test [3] the target is Dual specificity protein phosphatase 6 (Rattus norvegicus, UniProt Q64346). In words: inhibition of rat DUSP6 enzyme activity – biochemical, in vitro, primary screen (AID 425).
The target in the next test is Prothrombin (Homo sapiens, UniProt P00734). In words: Thrombin 1536 HTS Dose Response Confirmation. [Related pubchem assays: 1046 (Thrombin 1536 HTS; hits were confirmed in this assay)]. It counts as functional.
In test [4] the target is T5, Bcl-2-related protein A1 (Mus musculus, UniProt Q07440).
T5 sequence (Q07440 whole entry): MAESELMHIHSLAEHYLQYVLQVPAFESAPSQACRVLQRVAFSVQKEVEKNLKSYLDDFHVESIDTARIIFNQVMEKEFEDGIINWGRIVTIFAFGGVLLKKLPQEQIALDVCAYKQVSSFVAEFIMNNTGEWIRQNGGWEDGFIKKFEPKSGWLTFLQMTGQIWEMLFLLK
In words: Bfl-1 binding inhibitors, SAR follow-up, biochemical, fluorescence polarization (AID 1070). In general terms: Polarisation of emitted light reports the rotation of a fluorescent probe.

Test [5] deals with T5, Bcl-2-related protein A1. In words: small-molecule antagonists of Bfl-1/BH3 interaction – biochemical, TR-FRET, mouse Bfl-1, confirmation (AID 621).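 Note: TR-FRET binding of GST-Bfl-1 to FITC-labelled Bid peptide via terbium antibody.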
The target in a further test is Cytochrome P450 2C19 (Homo sapiens, UniProt P33261). In words: qHTS Assay for Inhibitors and Substrates of Cytochrome P450 2C19. [Related pubchem assays: 410 ]. Particulars: read-out: Potency. It counts as ADME.
Test [6] is described as follows: Luminescence Cell-Based Dose Confirmation HTS to Identify Inhibitors of Platelet Dense Granule Release. [Related pubchem assays: 1663 (Primary HTS), 1678 (Summary of Project)]. It counts as functional.
Test [7] concerns the target Luciferin 4-monooxygenase (Photinus pyralis, UniProt P08659). In words: inhibition of purified Photinus pyralis luciferase – biochemical, luminescence, dose response (AID 1891).
The nature of test [8]: Fluorescence Cell-Based Dose Response to Identify Inhibitors of Thrombin Receptor-Activating Peptide SFLLRN-Mediated P-Selectin Induction on Platelets. [Related pubchem assays: 1663 (Primary HTS), 1889 (retest at dose ), 1891 (counterscreen), 1678 (Project Summary)]. It counts as functional.
The target in test [9] is T6, Zinc finger protein mex-5 (Caenorhabditis elegans, UniProt Q9XUB2).
T6 sequence (Q9XUB2 whole entry): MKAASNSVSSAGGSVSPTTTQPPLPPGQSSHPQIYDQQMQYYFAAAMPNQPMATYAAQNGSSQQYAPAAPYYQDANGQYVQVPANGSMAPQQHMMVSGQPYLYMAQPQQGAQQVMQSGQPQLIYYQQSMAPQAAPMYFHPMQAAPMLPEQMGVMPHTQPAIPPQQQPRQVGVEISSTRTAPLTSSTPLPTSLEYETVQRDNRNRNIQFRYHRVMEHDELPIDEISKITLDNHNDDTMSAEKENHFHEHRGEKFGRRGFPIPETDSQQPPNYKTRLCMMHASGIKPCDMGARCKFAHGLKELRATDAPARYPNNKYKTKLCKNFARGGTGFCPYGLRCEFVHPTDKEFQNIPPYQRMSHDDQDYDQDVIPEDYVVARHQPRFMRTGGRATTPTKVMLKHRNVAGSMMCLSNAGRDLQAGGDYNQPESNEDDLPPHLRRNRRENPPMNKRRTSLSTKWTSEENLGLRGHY
In words: potency of MEX-5 RNA-binding blockers – biochemical, C. elegans, fluorescence polarization, dose response (AID 1960).

Test [10] has as its target T7, RNA-binding protein pos-1 (Caenorhabditis elegans, UniProt G5EF15).
T7 sequence (G5EF15 whole entry): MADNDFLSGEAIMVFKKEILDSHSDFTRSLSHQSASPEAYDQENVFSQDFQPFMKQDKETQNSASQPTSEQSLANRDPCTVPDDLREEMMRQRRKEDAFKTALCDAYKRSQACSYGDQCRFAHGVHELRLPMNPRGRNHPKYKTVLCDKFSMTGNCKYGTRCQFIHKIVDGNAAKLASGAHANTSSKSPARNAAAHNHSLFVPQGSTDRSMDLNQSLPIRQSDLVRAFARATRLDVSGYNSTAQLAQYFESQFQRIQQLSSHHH
In words: disruptors of C. elegans POS-1 RNA interaction – biochemical, fluorescence polarization, dose response (AID 1964).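 Note: purified POS-1 fused to maltose binding protein made in E. coli; potency of compounds blocking POS-1 binding to fluorescent RNA.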

A short description of test [11]: antibacterial activity against E. coli NEB5alpha – luminescence, counter-screen for MEX-5/POS-1 RNA-binding inhibitor project, dose response (AID 1959). It counts as functional.

Sequence of Procathepsin L (P07711 whole entry): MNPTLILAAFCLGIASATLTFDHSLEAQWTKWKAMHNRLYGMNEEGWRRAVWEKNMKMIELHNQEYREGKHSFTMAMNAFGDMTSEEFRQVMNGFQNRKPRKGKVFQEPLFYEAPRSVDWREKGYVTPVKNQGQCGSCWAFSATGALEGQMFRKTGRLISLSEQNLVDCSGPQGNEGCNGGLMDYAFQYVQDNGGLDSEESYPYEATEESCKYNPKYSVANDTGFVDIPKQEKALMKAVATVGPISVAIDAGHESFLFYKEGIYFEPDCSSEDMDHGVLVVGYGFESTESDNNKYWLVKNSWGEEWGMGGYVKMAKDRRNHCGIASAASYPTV
Sequence of Dual specificity protein phosphatase 6 (Q64346 whole entry): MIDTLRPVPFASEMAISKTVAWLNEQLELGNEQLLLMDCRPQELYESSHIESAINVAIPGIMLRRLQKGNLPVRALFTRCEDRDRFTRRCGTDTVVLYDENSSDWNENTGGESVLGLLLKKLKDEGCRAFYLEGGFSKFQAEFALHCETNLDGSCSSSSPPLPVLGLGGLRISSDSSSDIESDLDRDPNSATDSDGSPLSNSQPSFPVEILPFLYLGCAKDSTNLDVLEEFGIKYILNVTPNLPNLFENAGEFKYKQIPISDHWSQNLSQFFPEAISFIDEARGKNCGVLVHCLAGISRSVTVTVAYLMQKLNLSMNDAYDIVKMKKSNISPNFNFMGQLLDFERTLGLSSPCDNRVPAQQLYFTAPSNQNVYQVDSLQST
Sequence of Peroxisome proliferator-activated receptor gamma/Nuclear receptor corepressor 2 (P37231 whole entry): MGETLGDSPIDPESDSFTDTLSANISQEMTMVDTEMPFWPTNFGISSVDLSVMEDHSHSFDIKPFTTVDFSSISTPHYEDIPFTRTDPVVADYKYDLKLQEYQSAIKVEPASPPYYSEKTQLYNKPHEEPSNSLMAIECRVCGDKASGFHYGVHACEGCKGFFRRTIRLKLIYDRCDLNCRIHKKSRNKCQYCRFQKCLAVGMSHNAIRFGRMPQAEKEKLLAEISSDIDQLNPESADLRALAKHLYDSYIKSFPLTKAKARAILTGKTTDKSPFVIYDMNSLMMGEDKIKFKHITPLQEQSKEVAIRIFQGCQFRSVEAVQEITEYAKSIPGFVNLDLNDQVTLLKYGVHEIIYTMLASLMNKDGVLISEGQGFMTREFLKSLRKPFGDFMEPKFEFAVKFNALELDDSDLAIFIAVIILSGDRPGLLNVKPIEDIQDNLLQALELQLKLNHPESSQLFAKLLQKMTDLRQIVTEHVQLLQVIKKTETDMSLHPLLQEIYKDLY
Sequence of Peroxisome proliferator-activated receptor gamma/Nuclear receptor corepressor 2 (Q9Y618 whole entry): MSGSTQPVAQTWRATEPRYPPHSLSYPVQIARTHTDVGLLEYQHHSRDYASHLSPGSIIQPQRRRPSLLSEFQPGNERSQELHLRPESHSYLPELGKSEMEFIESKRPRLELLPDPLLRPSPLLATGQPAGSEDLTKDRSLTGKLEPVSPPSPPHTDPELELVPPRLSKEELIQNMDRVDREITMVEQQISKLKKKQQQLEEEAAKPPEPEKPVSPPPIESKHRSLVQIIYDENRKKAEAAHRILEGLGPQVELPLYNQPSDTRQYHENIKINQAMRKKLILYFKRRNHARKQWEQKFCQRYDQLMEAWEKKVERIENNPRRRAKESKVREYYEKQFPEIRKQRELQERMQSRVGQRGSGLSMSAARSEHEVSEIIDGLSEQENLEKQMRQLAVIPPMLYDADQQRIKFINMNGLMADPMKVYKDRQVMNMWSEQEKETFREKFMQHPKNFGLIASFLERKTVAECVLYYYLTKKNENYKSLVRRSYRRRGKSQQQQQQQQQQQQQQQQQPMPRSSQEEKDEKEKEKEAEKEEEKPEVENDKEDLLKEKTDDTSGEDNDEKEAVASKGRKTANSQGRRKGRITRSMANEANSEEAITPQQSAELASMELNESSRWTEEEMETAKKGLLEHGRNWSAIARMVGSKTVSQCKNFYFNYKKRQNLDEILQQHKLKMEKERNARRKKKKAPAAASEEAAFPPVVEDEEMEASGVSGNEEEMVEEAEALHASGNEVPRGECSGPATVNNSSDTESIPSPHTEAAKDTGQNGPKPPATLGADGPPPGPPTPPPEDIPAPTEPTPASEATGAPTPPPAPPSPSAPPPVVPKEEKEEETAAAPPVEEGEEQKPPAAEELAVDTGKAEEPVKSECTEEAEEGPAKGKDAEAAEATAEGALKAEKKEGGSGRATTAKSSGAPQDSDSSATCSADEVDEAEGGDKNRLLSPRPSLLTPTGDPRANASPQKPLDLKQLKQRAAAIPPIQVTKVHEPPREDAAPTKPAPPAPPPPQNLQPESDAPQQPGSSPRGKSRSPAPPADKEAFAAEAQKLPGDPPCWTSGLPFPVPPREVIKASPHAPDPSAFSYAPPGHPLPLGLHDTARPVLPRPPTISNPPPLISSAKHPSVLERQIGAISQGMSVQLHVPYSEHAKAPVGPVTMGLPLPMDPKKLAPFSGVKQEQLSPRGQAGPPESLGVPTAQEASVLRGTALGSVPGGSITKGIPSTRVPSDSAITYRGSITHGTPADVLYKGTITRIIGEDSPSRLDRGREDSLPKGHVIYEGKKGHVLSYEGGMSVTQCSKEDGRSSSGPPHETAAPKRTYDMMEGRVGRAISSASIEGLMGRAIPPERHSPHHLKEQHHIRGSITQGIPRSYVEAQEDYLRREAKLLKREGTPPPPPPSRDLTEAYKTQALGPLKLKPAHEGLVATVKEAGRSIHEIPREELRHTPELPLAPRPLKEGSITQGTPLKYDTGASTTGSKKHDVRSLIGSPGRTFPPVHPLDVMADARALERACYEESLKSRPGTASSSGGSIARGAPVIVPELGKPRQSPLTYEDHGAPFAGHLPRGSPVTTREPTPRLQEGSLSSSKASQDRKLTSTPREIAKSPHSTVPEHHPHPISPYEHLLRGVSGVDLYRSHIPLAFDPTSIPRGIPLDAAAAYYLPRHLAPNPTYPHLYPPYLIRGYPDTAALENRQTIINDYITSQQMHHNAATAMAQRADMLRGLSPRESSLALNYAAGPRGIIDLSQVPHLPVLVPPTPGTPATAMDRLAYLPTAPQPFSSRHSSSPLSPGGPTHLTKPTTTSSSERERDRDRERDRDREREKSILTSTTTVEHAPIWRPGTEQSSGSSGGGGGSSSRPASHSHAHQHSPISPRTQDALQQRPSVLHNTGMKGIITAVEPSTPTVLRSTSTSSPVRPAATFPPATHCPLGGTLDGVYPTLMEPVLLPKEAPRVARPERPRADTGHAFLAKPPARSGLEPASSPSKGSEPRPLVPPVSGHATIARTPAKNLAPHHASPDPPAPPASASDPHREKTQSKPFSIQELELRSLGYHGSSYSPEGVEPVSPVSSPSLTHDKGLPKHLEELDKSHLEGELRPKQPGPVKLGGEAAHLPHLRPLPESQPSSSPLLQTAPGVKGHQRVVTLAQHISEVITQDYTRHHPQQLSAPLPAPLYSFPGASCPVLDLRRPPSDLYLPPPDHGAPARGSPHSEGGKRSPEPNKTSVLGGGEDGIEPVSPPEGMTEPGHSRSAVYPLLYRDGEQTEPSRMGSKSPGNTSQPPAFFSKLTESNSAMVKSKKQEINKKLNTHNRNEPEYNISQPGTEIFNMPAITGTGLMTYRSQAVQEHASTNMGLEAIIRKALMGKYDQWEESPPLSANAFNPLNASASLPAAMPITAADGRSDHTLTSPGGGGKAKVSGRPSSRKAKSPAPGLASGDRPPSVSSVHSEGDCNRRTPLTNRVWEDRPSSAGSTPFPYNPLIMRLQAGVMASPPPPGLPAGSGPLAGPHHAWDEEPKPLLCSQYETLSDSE
Sequence of Photoreceptor-specific nuclear receptor (Q9Y5X4 whole entry): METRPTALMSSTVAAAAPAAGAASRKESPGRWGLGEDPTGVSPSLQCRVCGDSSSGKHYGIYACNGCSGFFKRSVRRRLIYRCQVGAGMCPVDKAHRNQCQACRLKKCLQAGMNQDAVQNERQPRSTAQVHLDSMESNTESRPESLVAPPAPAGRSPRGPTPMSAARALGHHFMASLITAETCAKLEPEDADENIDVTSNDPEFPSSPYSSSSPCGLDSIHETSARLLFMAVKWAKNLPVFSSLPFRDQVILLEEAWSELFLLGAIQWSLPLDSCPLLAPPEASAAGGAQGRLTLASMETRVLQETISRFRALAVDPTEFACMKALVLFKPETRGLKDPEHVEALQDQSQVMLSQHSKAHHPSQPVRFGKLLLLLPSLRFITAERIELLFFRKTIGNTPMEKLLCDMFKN
Sequence of Cytochrome P450 2C19 (P33261 whole entry): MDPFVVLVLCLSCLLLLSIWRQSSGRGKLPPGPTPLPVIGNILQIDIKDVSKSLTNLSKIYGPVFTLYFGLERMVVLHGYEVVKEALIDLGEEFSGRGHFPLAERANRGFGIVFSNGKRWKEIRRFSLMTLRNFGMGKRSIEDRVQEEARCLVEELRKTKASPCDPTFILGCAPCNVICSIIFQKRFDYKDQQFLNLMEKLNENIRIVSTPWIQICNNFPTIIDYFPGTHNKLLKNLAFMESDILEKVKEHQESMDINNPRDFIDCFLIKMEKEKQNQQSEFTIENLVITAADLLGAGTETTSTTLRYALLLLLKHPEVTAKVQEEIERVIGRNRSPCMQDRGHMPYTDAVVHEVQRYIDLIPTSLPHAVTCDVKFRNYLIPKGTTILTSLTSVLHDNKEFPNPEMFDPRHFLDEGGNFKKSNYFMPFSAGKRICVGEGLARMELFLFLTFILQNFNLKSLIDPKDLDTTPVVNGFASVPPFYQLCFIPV

As usually defined, the IC50 is the point on the concentration scale where inhibition reaches its midpoint. As to `S=C(NNC(=S)Nc1ccccc1)Nc1ccccc1`, the IC50 at NADPH oxidase 1 is 0.321 µM (active).
With `CCOCCCNC(=O)c1cc(-c2ccc(Br)s2)nc2ccccc12`, the IC50 was 6.67 µM (active) in test [1] and 4.18 µM (active) in test [2].
With `O=C(CSc1nc(O)cc(O)n1)Nc1ccc2c(c1)CCC2`, the IC50 is > 100 µM (inactive) on Protein skinhead-1, > 59.6 µM (not active) against Procathepsin L, > 73.5 µM (not active) against Aspartyl aminopeptidase and 2.01 µM (active) on Leucine aminopeptidase.
On to `CCCCOc1ccccc1P(=O)(O)CP(=O)(c1ccccc1)c1ccccc1`, for which the IC50 in [3] is > 100 µM (not active).
`COc1ccc(NC(=O)Cc2ccccc2F)cn1`: on Prothrombin, the IC50 is on record as > 50 µM (not active).
Regarding `COc1ncccc1-c1nnn(-c2ccc(Cl)nc2)n1`, the IC50 on Bcl-2-related protein A1 [4] and at Bcl-2-related protein A1 [5] was > 100 µM (not active) each time.
As for `C[C@@]12CCC(=O)C=C1CC[C@H]1[C@H]3CC[C@](O)(C(=O)CO)[C@]3(C)CC[C@@H]12`, at Cytochrome P450 2C19, the AC50 is 10 µM (inconclusive).
As a reminder, the EC50 is the concentration that produces a half-maximal response. For `CCC(CC)=N/N=C/c1c(O)n(CC)c2cc(C3=NNC(=O)CC3)ccc12`, the figures for the EC50 in test [6], in [7] and in test [8] were 2.71 µM (active), > 112 µM (not active) and < 0.3 µM (active), respectively.
Turning to `NC(=O)c1ccccc1N/C=C/C(=O)c1ccc(F)cc1`, the results for the EC50 in test [9], in test [10] and in test [11] were > 300 µM (not active), > 300 µM (not active) and 23 µM (active), respectively.
